Test results: US20200339625A1, “NOVEL RADIOMETAL-BINDING COMPOUNDS FOR DIAGNOSIS OR TREATMENT OF PROSTATE SPECIFIC MEMBRANE ANTIGEN-EXPRESSING CANCER” (PROVINCIAL HEALTH SERVICES AUTHORITY, priority 2017, published 2020)

Tested on: mice bearing LNCaP xenografts
Test: Biodistribution of 177Lu-labeled compounds
Format: in vivo
Protocol: 1.17 SPECT/CT Imaging, Biodistribution and Endoradiotherapy Studies
SPECT/CT imaging and biodistribution were performed using NOD-scid IL2Rgammanu^null (NSG) male mice, and the endoradiotherapy study was conducted using NOD.Cg-Rag1^tm1MomII2rg^tm1WjI/SzJ (NRG) male mice. The mice were maintained and the experiments were conducted in according to the guidelines established by the Canadian Council on Animal Care and approved by Animal Ethics Committee of the University of British Columbia. Mice were anesthetized by inhalation with 2% isoflurane in oxygen, and implanted subcutaneously with 1×10^7 LNCaP cells posterior to the left shoulder. Mice were used for studies when the tumor reached 5-8 mm in diameter 5-6 weeks after inoculation.
For biodistribution studies, the mice were injected with ^177Ludabeled PSMA-617 or HTK01169 (2-4 MBq) as described above. At predetermined time points (1, 4, 24, 72, or 120 h post-injection), the mice were euthanized by CO2 inhalation. Blood was withdrawn immediately from the heart, and the organs/tissues of interest were collected. The collected organs/tissues were weighed and counted using an automated gamma counter. For the blocking study, mice were co-injected with ^177Lu-HTK01169 (2-4 MBq) and 50 nmol of the non-radioactive standard, and organs/tissues of interest were collected at 4 h post-injection.

For `O=C([O-])CN1CCN(CC(=O)[O-])CCN(CC(=O)NCC2CCC(C(=O)N[C@@H](Cc3ccc4ccccc4c3)C(=O)NCCCC[C@H](NC(=O)N[C@@H](CCC(=O)O)C(=O)O)C(=O)O)CC2)CCN(CC(=O)[O-])CC1.[177Lu+3]` (stereo partly shown) [^177Lu-PSMA-617, reference compound], the “tumor-to-background contrast ratios, trend” value (1-120 h) was “improved over time as well”, the Adrenal glands uptake (1 h post-injection) was 4.88±2.41 % ID/g and the Blood uptake (1 h post-injection) was 0.68±0.23 % ID/g. For the same compound, the Bone uptake (1 h post-injection) was 0.14 ± 0.06 % ID/g, the Brain uptake (1 h post-injection) was 0.03 ± 0.01 % ID/g and the Fat uptake (1 h post-injection) was 0.46 ± 0.18 % ID/g. For the same compound, the Heart uptake (1 h post-injection) was 0.28 ± 0.10 % ID/g, the Intestine uptake (1 h post-injection) was 0.26 ± 0.16 % ID/g and the Kidneys uptake (1 h post-injection) was 97.2±19.4 % ID/g. It also gave a Liver uptake (1 h post-injection) of 0.26 ± 0.15 % ID/g, a Lung uptake (1 h post-injection) of 1.34±0.39 % ID/g and a Muscle uptake (1 h post-injection) of 0.18 ± 0.06 % ID/g. For the same compound, the Pancreas uptake (1 h post-injection) was 0.33 ± 0.18 % ID/g, the Seminal uptake (1 h post-injection) was 0.14 ± 0.08 % ID/g and the Spleen uptake (1 h post-injection) was 3.34±1.77 % ID/g. For the same compound, the Stomach uptake (1 h post-injection) was 0.18 ± 0.14 % ID/g, the Testes uptake (1 h post-injection) was 0.49 ± 0.22 % ID/g and the Tumor uptake (1 h post-injection) was 15.1±5.58 % ID/g. The Tumor/blood ratio (1 h post-injection) was 22.8 ± 6.85, the Tumor/kidney ratio (1 h post-injection) was 0.15 ± 0.04 and the Tumor/muscle ratio (1 h post-injection) was 86.9 ± 26.6. For the same compound, the Adrenal glands uptake (4 h post-injection) was 0.40 ± 0.18 % ID/g, the Blood uptake (4 h post-injection) was 0.12 ± 0.18 % ID/g and the Bone uptake (4 h post-injection) was 0.06 ± 0.03 % ID/g. For the same compound, the Brain uptake (4 h post-injection) was 0.02 ± 0.00 % ID/g, the Fat uptake (4 h post-injection) was 0.16 ± 0.11 % ID/g and the Heart uptake (4 h post-injection) was 0.04 ± 0.02 % ID/g. The Intestine uptake (4 h post-injection) was 0.07 ± 0.04 % ID/g, the Kidneys uptake (4 h post-injection) was 26.6 ± 19.1 % ID/g and the Liver uptake (4 h post-injection) was 0.08 ± 0.06 % ID/g. For the same compound, the Lung uptake (4 h post-injection) was 0.16 ± 0.07 % ID/g, the Muscle uptake (4 h post-injection) was 0.05 ± 0.03 % ID/g and the Pancreas uptake (4 h post-injection) was 0.05 ± 0.01 % ID/g. For the same compound, the Seminal uptake (4 h post-injection) was 0.02 ± 0.01 % ID/g, the Spleen uptake (4 h post-injection) was 0.24 ± 0.14 % ID/g and the Stomach uptake (4 h post-injection) was 0.04 ± 0.02 % ID/g. It also gave a Testes uptake (4 h post-injection) of 0.06 ± 0.01 % ID/g, a Tumor uptake (4 h post-injection) of 14.5 ± 1.83 % ID/g and a Tumor/blood ratio (4 h post-injection) of 290 ± 175. For the same compound, the Tumor/kidney ratio (4 h post-injection) was 0.79 ± 0.48, the Tumor/muscle ratio (4 h post-injection) was 371 ± 171 and the Adrenal glands uptake (24 h post-injection) was 0.06 ± 0.03 % ID/g. It also gave a Blood uptake (24 h post-injection) of 0.00 ± 0.00 % ID/g, a Bone uptake (24 h post-injection) of 0.03 ± 0.02 % ID/g and a Brain uptake (24 h post-injection) of 0.01 ± 0.00 % ID/g. For the same compound, the Fat uptake (24 h post-injection) was 0.08 ± 0.03 % ID/g, the Heart uptake (24 h post-injection) was 0.01 ± 0.00 % ID/g and the Intestine uptake (24 h post-injection) was 0.02 ± 0.00 % ID/g. For the same compound, the Kidneys uptake (24 h post-injection) was 0.58 ± 0.22 % ID/g, the Liver uptake (24 h post-injection) was 0.03 ± 0.01 % ID/g and the Lung uptake (24 h post-injection) was 0.03 ± 0.01 % ID/g. The Muscle uptake (24 h post-injection) was 0.01 ± 0.00 % ID/g, the Pancreas uptake (24 h post-injection) was 0.01 ± 0.00 % ID/g and the Seminal uptake (24 h post-injection) was 0.01 ± 0.00 % ID/g. It also gave a Spleen uptake (24 h post-injection) of 0.05 ± 0.01 % ID/g, a Stomach uptake (24 h post-injection) of 0.04 ± 0.02 % ID/g and a Testes uptake (24 h post-injection) of 0.02 ± 0.01 % ID/g. It also gave a Tumor uptake (24 h post-injection) of 10.9 ± 3.30 % ID/g, a Tumor/blood ratio (24 h post-injection) of 2293 ± 651 and a Tumor/kidney ratio (24 h post-injection) of 20.7 ± 8.39. It also gave a Tumor/muscle ratio (24 h post-injection) of 1582 ± 353, an Adrenal glands uptake (72 h post-injection) of 0.10 ± 0.06 % ID/g and a Blood uptake (72 h post-injection) of 0.00 ± 0.00 % ID/g. It also gave a Bone uptake (72 h post-injection) of 0.05 ± 0.02 % ID/g, a Brain uptake (72 h post-injection) of 0.01 ± 0.00 % ID/g and a Fat uptake (72 h post-injection) of 0.05 ± 0.02 % ID/g. For the same compound, the Heart uptake (72 h post-injection) was 0.01 ± 0.01 % ID/g, the Intestine uptake (72 h post-injection) was 0.01 ± 0.01 % ID/g and the Kidneys uptake (72 h post-injection) was 0.22 ± 0.11 % ID/g. It also gave a Liver uptake (72 h post-injection) of 0.02 ± 0.01 % ID/g, a Lung uptake (72 h post-injection) of 0.02 ± 0.01 % ID/g and a Muscle uptake (72 h post-injection) of 0.01 ± 0.00 % ID/g. The Pancreas uptake (72 h post-injection) was 0.01 ± 0.01 % ID/g, the Seminal uptake (72 h post-injection) was 0.01 ± 0.01 % ID/g and the Spleen uptake (72 h post-injection) was 0.03 ± 0.02 % ID/g. The Stomach uptake (72 h post-injection) was 0.03 ± 0.03 % ID/g, the Testes uptake (72 h post-injection) was 0.01 ± 0.00 % ID/g and the Tumor uptake (72 h post-injection) was 7.80 ± 3.69 % ID/g. The Tumor/blood ratio (72 h post-injection) was 2206 ± 337, the Tumor/kidney ratio (72 h post-injection) was 38.0 ± 13.4 and the Tumor/muscle ratio (72 h post-injection) was 1378 ± 335. It also gave an Adrenal glands uptake (120 h post-injection) of 0.04 ± 0.02 % ID/g, a Blood uptake (120 h post-injection) of 0.00 ± 0.00 % ID/g and a Bone uptake (120 h post-injection) of 0.02 ± 0.01 % ID/g. It also gave a Brain uptake (120 h post-injection) of 0.01 ± 0.00 % ID/g, a Fat uptake (120 h post-injection) of 0.03 ± 0.01 % ID/g and a Heart uptake (120 h post-injection) of 0.00 ± 0.00 % ID/g. The Intestine uptake (120 h post-injection) was 0.03 ± 0.03 % ID/g, the Kidneys uptake (120 h post-injection) was 0.08 ± 0.03 % ID/g and the Liver uptake (120 h post-injection) was 0.01 ± 0.00 % ID/g. The Lung uptake (120 h post-injection) was 0.01 ± 0.00 % ID/g, the Muscle uptake (120 h post-injection) was 0.00 ± 0.00 % ID/g and the Pancreas uptake (120 h post-injection) was 0.00 ± 0.00 % ID/g. It also gave a Seminal uptake (120 h post-injection) of 0.00 ± 0.00 % ID/g, a Spleen uptake (120 h post-injection) of 0.02 ± 0.01 % ID/g and a Stomach uptake (120 h post-injection) of 0.05 ± 0.05 % ID/g. For the same compound, the Testes uptake (120 h post-injection) was 0.01 ± 0.00 % ID/g, the Tumor uptake (120 h post-injection) was 7.91±2.82 % ID/g and the Tumor/blood ratio (120 h post-injection) was 4425 ± 1485. The Tumor/kidney ratio (120 h post-injection) was 103 ± 75.9, the Tumor/muscle ratio (120 h post-injection) was 4388 ± 4211 and the “blood clearance (qualitative)” value (mouse, in vivo) was “cleared rapidly from blood”. For the same compound, the peaked tumor uptake (peak over 1-120 h) was 15.1±5.58 % ID/g.
